Where “and” joins values, the source holds several entries; their conditions need not be identical. Identical values can stand only once.
Columns and labels:
Type in all cases: in vivo, human
[1] = system: MDX203 Mini-PDX models (conditional reprogramming cells from a gallbladder carcinoma patient); test: Anti-tumor efficacy in MDX203 Mini-PDX model; conditions: Mini-PDX devices s.c. in nude mice, CTG cell viability day 7, doses, routes and schedules per Table 15
Source text: (§2) Conditional reprogramming cells from MDX133, MDX154, MDX164, MDX165, MDX168, MDX169, MDX174, MDX186, MDX189, MDX203 were collected separately. MDX133 originated from a gastric cancer patient, MDX154 model originated from a gallbladder carcinoma patient, MDX164 model originated from a glioblastoma patient, MDX165 model originated from a glioblastoma patient, MDX168 model originated from a gallbladder carcinoma patient, MDX169 model originated from a lung cancer patient, MDX174 model originated from a lung cancer patient, MDX186 model originated from a pancreatic cancer patient, MDX189 model originated from a esophagus cancer patient, MDX203 model originated from a gallbladder carcinoma patient.
(§3) Wash the tumor tissue sample with buffer solution and remove away non-tumor tissue and necrotic tumor tissue in biosafety cabinet. Cut the tumor into 1˜3 mm3 fragments, suspend pellet with 1× collagenase solution and incubate in 37° C. for 1-2 hours. Collect single cells through 70 uM strainer, count cell numbers to calculate tumor cell concentration (See 9. Tumor cell concentration obtained from surgery and biopsy/needle biopsy). Cultivate the cells with conditional reprogramming medium, after tumor cells proliferation, and harvest the conditional reprogramming cells.
(§4) Suspend tumor tissues obtained from biopsy/needle biopsy in 1× collagenase solution and incubate in 37° C. for 1-2 hours. Collect single cells through 70 uM strainer, count cell numbers to calculate tumor cell concentration (See 9. Tumor cell concentration obtained from surgery and biopsy/needle biopsy). Cultivate the cells with conditional reprogramming medium, after tumor cells proliferation, and harvest the conditional reprogramming cells.
(§5) The cells suspension was filled into Mini-PDX device and the devices were inoculated subcutaneously into both flanks of Nu/Nu-nude mice, to establish the Mini-PDX model. The inoculation day was defined as day 0. Mice were randomized in groups according to the bodyweights and the treatments were initiated at day 0.
(§6) • 6.4.1 Body weight were measured every day, the treatment periods of these studies were 7 days, at the termination, all mice were euthanized and the Mini-PDX devices were removed for CTG (cell viability) assay. Tumor relative proliferation rate (%) is the indication of the anti-tumor activity. • 6.4.2 When VCd7−Vd0>0, Tumor relative proliferation rate (%)=(VTd7−Vd0)/(VCd7−Vd0)×100%; When VCd7−Vd0<0, Tumor relative proliferation rate (%)=VTd7/VCd7×100% (VTd7: the cell viability on day 7 of treatment group; VCd7: the cell viability on day 7 of control group; Vdo: the cell viability on day 0).

[2] = system: MDX154 Mini-PDX models (conditional reprogramming cells from a gallbladder carcinoma patient); test: Anti-tumor efficacy in MDX154 Mini-PDX model; conditions: Mini-PDX devices s.c. in nude mice, CTG cell viability day 7, doses, routes and schedules per Table 7
Source text: (§1) The inoculation day was defined as day 0.

[3] = system: MDX123 Mini-PDX models (conditional reprogramming cells from a colonrectal cancer patient); test: Anti-tumor efficacy in MDX123 Mini-PDX model; conditions: Mini-PDX devices s.c. in nude mice, CTG cell viability day 7, i.p., doses and schedules per Table 5
Source text: as §1

[4] = system: MDX095 Mini-PDX models (conditional reprogramming cells from a peritoneal malignant tnesoshelioma patient); test: Anti-tumor efficacy in MDX095 Mini-PDX model; conditions: Mini-PDX devices s.c. in nude mice, CTG cell viability day 7, i.p., doses and schedules per Table 3
Source text: Conditional reprogramming cells from […]123 were collected separately. […] The inoculation day was defined as day 0.

[5] = system: MDX186 Mini-PDX models (conditional reprogramming cells from a pancreatic cancer patient); test: Anti-tumor efficacy in MDX186 Mini-PDX model; conditions: Mini-PDX devices s.c. in nude mice, CTG cell viability day 7, doses, routes and schedules per Table 13
Source text: as §2, §3, §4, §5, §6

[6] = system: MDX133 Mini-PDX models (conditional reprogramming cells from a gastric cancer patient); test: Anti-tumor efficacy in MDX133 Mini-PDX model; conditions: Mini-PDX devices s.c. in nude mice, CTG cell viability day 7, doses, routes and schedules per Table 6
Source text: as §2, §3, §4, §5, §6

[7] = system: MDX168 Mini-PDX models (conditional reprogramming cells from a gallbladder carcinoma patient); test: Anti-tumor efficacy in MDX168 Mini-PDX model; conditions: Mini-PDX devices s.c. in nude mice, CTG cell viability day 7, doses, routes and schedules per Table 10
Source text: as §2, §3, §4, §5, §6

[8] = system: MDX164 Mini-PDX models (conditional reprogramming cells from a glioblastoma patient); test: Anti-tumor efficacy in MDX164 Mini-PDX model; conditions: Mini-PDX devices s.c. in nude mice, CTG cell viability day 7, 50 mg/kg p.o. qd*5
Source text: as §1

[9] = system: MDX165 Mini-PDX models (conditional reprogramming cells from a glioblastoma patient); test: Anti-tumor efficacy in MDX165 Mini-PDX model; conditions: Mini-PDX devices s.c. in nude mice, CTG cell viability day 7, 50 mg/kg p.o. qd*5
Source text: as §1

Compound	T/C % (Tumor relative proliferation rate) [1]	T/C % (Tumor relative proliferation rate) [2]	T/C % (Tumor relative proliferation rate) [3]	T/C % (Tumor relative proliferation rate) [4]	T/C % (Tumor relative proliferation rate) [5]	T/C % (Tumor relative proliferation rate) [6]	T/C % (Tumor relative proliferation rate) [7]	other results
O=c1[nH]cc(F)c(=O)[nH]1 [5-Fu]	83%	111%	75%	80%	90%	103%	146%	
N.N.[Cl][Pt][Cl] [Cisplatin]				128%				
COc1cccc2c1C(=O)c1c(O)c3c(c(O)c1C2=O)C[C@@](O)(C(=O)CO)C[C@@H]3O[C@H]1C[C@H](N)[C@@H](O)[C@H](C)O1 [Epirubicin]				120%				
COc1cc([C@@H]2c3cc4c(cc3[C@@H](O[C@@H]3O[C@@H]5CO[C@@H](C)O[C@H]5[C@H](O)[C@H]3O)[C@H]3COC(=O)[C@H]23)OCO4)cc(OC)c1O [Etoposide]				109%				
Nc1ccn([C@@H]2O[C@H](CO)[C@@H](O)C2(F)F)c(=O)n1 [Gemcitabine]	77%	100%			83%		53%	
CCc1c2c(nc3ccc(OC(=O)N4CCC(N5CCCCC5)CC4)cc13)-c1cc3c(c(=O)n1C2)COC(=O)[C@]3(O)CC [Irinotecan]	48%	227%	68%		5%	72%	12%	
O=C1[O][Pt]2([NH][C@@H]3CCCC[C@H]3[NH]2)[O]C1=O [Oxaliplatin]	43%	174%	61%		47%	89%	75%	
CC(=O)O[C@H]1C(=O)[C@@]2(C)[C@H]([C@H](OC(=O)c3ccccc3)[C@]3(O)C[C@H](OC(=O)[C@H](O)[C@@H](NC(=O)c4ccccc4)c4ccccc4)C(C)=C1C3(C)C)[C@]1(OC(C)=O)CO[C@@H]1C[C@@H]2O [Paclitaxel]				79%		52%		
Cc1nc2ccc(CN(C)c3ccc(C(=O)N[C@@H](CCC(=O)O)C(=O)O)s3)cc2c(=O)[nH]1 [Raltitrexed]			92%					
Cn1nnc2c(C(N)=O)ncn2c1=O [Temozolomide]								T/C % (Tumor relative proliferation rate) [8]: 102%; T/C % (Tumor relative proliferation rate) [9]: 29%
Bevazulimab: Test drug of the MDX123 groups, printed Bevacizumab in Table 5			76% and 101%					

— US20210047622A1, “METHOD FOR OBTAINING AN ANIMAL MODEL FROM CONDITIONALLY REPROGRAMMED CELLS AND USE OF THE ANIMAL MODEL FOR SCREEING ANTI-TUMOR DRUGS” (Shanghai Lide Biotech Co., Ltd., priority 2018, published 2021)
